# Results published in patent US20250320496A1, “MODULATION OF ABCB11 GENE TRANSCRIPTION USING ANTISENSE OLIGONUCLEOTIDES TARGETING REGULATORY RNAS” (CAMP4 Therapeutics Corporation, priority 2022, published 2025).
# Strand notation (5' to 3'): a small letter for the sugar, then the base; units joined by * are phosphorothioate-linked, units joined directly phosphodiester-linked; [ ] holds rarer units or linkages, { } end groups; capitals alone tell only the bases. e = 2'-O-(2-methoxyethyl) (MOE); l = locked nucleic acid (LNA); [5mC] = 5-methylcytosine; d = 2'-deoxy (DNA)
# Test system: human ABCB11 mRNA
# Assay: ASO treatment of primary human hepatocytes (PHH), ABCB11 mRNA by RT-qPCR normalized to B2M
# Format: cell-based
# Parameters: ABCB11 mRNA, dose titration: unit of the concentration uncertain
# Settings: PHHs; CO-3986 and CO-4529 tested at 2.5 (unit uncertain), 5 μM, and 10 μM
# Method in brief: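 Plated primary human hepatocytes were treated 4 h post-thaw with ASO (e.g., 1.25–10 μM; initial screen 5 μM) in medium containing 0.3 mg/ml Matrigel for 72 hrs. Total RNA was reverse-transcribed and ABCB11 mRNA measured by Taqman RT-qPCR, normalized to B2M, with fold change versus untreated PHHs.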
row,Substance,"ABCB11 mRNA, dose titration"
1,CO-4529: ASO targeting eRNA RR64 of human ABCB11 (antisense eG*eT*eG*eG*eA*eG*e[5mC]*eA*eA*eA*e[5mC]*eT*eA*eG*eG*e[5mC]eA*e[5mC]*eT*eG),dose-dependent increase

# Same assay, conditions: primary human hepatocytes, 5 μM ASO with PO-modifications, normalized to untreated hepatocytes
row,Substance,ABCB11 FC mRNA (5 μM ASO vs. untreated)
1,CO-11243 (antisense eG*eT*eGeG*lA*eGe[5mC]*eA*eAlA*e[5mC]*eTeA*eG*lGe[5mC]*eA*e[5mC]eT*eG),1.71 fold change
2,CO-11239 (antisense eG*eT*eG*eGlA*eG*e[5mC]*eAeA*lA*e[5mC]*eTeA*eG*lG*e[5mC]eA*e[5mC]*eT*eG),1.53 fold change
3,CO-11211 (antisense eG*eT*lG*eGlAeGl[5mC]*eA*lA*eA*l[5mC]*eT*lA*eGlGe[5mC]lA*e[5mC]*eT*eG),2.80 fold change
4,CO-11245 (antisense eG*eTeG*eGlA*eGe[5mC]*eAeA*lAe[5mC]*eTeA*eGlG*e[5mC]eA*e[5mC]eT*eG),1.59 fold change
5,CO-11200 (antisense eT*eG*eTeTeTeTeG*e[5mC]*eT*eT*eG*eG*eT*e[5mC]eAeAeGeA*eG*eG),1.34 fold change
6,CO-11225 (antisense eG*eTlGeGeAlGe[5mC]*eA*lA*eA*e[5mC]*lT*eA*eGlGe[5mC]eAl[5mC]eT*eG),1.66 fold change
7,CO-12754 (antisense eG*eT*eGeA*eG*eGe[5mC]*eA*eTe[5mC]*eA*eGeG*eT*eAeA*eG*eTeT*e[5mC]),1.04 fold change
8,CO-11236 (antisense eG*eT*eGeGlAeGe[5mC]*eA*eA*lA*e[5mC]*eT*eA*eGlGe[5mC]eAe[5mC]*eT*eG),1.60 fold change

# Same assay, conditions: primary human hepatocytes, 5 μM ASO, normalized to untreated PHHs (UNT)
row,Substance,ABCB11 mRNA FC (5 μM ASO vs. UNT)
1,CO-6989 (antisense eT*eG*lG*eA*lT*eG*lT*eA*lG*eA*lT*eG*lA*eA*lT*eG*lG*e[5mC]*eA*eA),1.469 fold change
2,CO-7108 (eA*e[5mC]*eA*eT*eT*dT*dA*dG*eA*dG*dA*d[5mC]*dA*eA*dA*dG*dA*eA*eT*e[5mC]*eG*e[5mC]; antisense),1.101 fold change
3,CO-4038 (antisense e[5mC]*eT*e[5mC]*eG*eT*eA*eT*eG*eT*e[5mC]*eA*e[5mC]*eT*eG*eA*eA*e[5mC]*eT*eG*eT),1.701 fold change
4,CO-3988 (antisense eA*eA*eA*eT*eG*e[5mC]*e[5mC]*e[5mC]*eA*eA*eG*eT*eT*eT*e[5mC]*eA*eT*eT*eG*e[5mC]),1.827 fold change
5,CO-7052 (antisense eT*e[5mC]*eA*e[5mC]*e[5mC]*eT*eT*eG*eG*eT*eT*e[5mC]*e[5mC]*e[5mC]*e[5mC]*e[5mC]*eT*eG*e[5mC]*eT),1.046 fold change
6,CO-7106 (eA*e[5mC]*eA*eT*eT*eT*dA*dG*dA*dG*dA*d[5mC]*dA*dA*dA*dG*eA*eA*eT*e[5mC]*eG*e[5mC]; antisense),1.246 fold change
7,CO-4529: ASO targeting eRNA RR64 of human ABCB11 (antisense eG*eT*eG*eG*eA*eG*e[5mC]*eA*eA*eA*e[5mC]*eT*eA*eG*eG*e[5mC]eA*e[5mC]*eT*eG),1.05 fold change
8,CO-4037 (antisense eG*eG*eG*eA*e[5mC]*eA*eT*eT*eG*eA*eT*e[5mC]*e[5mC]*eT*eT*eA*eG*eG*e[5mC]*eA),0.697 fold change
9,CO-4058 (antisense eG*eA*eT*eT*e[5mC]*eA*e[5mC]*eA*eA*eG*eA*eA*eG*eG*eG*eA*eG*eA*eG*eG),1.134 fold change
10,"CO-4517: parent ASO targeting a human ABCB11 regRNA, chemically modified to CO-7141 etc. (antisense e[5mC]*eT*eT*eA*eG*eG*eA*eG*eG*eA*eT*eT*eA*eT*eT*eT*eA*eA*e[5mC]*e[5mC])",0.914 fold change
11,CO-3997 (antisense eG*e[5mC]*eT*eG*eT*eG*e[5mC]*eT*e[5mC]*eT*eG*eT*eA*eA*e[5mC]*eA*e[5mC]*eT*eG*eT),1.501 fold change
12,CO-7015 (antisense eA*eG*eT*eG*eA*dG*dG*d[5mC]*eA*dT*d[5mC]*dA*dG*eG*dT*dA*dA*eG*eT*eT*e[5mC]*e[5mC]),1.257 fold change
13,CO-4019 (antisense eA*eG*eA*eG*eT*eG*eG*eT*eG*eT*eA*e[5mC]*eA*eT*eG*eG*eG*eT*eG*eT),1.028 fold change
14,CO-7056 (antisense eT*eG*e[5mC]*eT*e[5mC]*eA*e[5mC]*e[5mC]*e[5mC]*e[5mC]*e[5mC]*e[5mC]*eT*e[5mC]*eA*e[5mC]*e[5mC]*eT*eT*eG),1.491 fold change
15,CO-7097 (eA*e[5mC]*e[5mC]*e[5mC]*l[5mC]*e[5mC]*e[5mC]*eT*e[5mC]*lA*e[5mC]*e[5mC]*eT*eT*lG*eG*eT*eT*e[5mC]*e[5mC]; antisense),1.028 fold change
16,CO-7159 (antisense eG*eG*eA*eG*eG*eT*eG*eG*eA*eG*e[5mC]*eA*eA*eA*e[5mC]*eT*eA*eG*eG*e[5mC]),1.326 fold change
17,CO-4013 (antisense eT*eT*eG*eA*eA*eA*eG*e[5mC]*eT*eG*eG*eT*eT*eT*eA*eA*eT*eG*e[5mC]*eA),1.166 fold change
18,CO-6674 (antisense eT*eG*eG*eA*eA*eG*eG*eA*e[5mC]*eA*e[5mC]*eA*eA*eT*eT*eT*e[5mC]*eT*eG*eT),1.175 fold change

row,Substance,ABCB11 mRNA FC (5 μM ASO vs. UNT)
1,CO-7165 (antisense eT*eT*eA*eA*eT*eT*e[5mC]*eT*eA*e[5mC]*eA*eG*eA*eG*eG*eG*eA*eG*e[5mC]*eA),1.329 fold change
2,CO-7105 (eT*eA*eT*e[5mC]*eT*dG*dG*lA*dA*dA*lA*dT*dA*lA*dT*dG*l[5mC]*d[5mC]*dT*eT*eT*e[5mC]*eT*eA; antisense),1.002 fold change
3,CO-4505 (antisense eG*eA*eG*e[5mC]*eA*e[5mC]*eA*e[5mC]*eA*eT*eT*e[5mC]*eA*e[5mC]*eT*e[5mC]*e[5mC]*eA*eT*eT),1.011 fold change
4,CO-7100 (eA*eT*e[5mC]*eT*eG*dG*dA*dA*eA*dA*dT*dA*dA*eT*dG*d[5mC]*d[5mC]*eT*eT*eT*e[5mC]*eT; antisense),1.406 fold change
5,CO-6996 (antisense eG*eT*eG*lA*eG*dG*d[5mC]*lA*dT*d[5mC]*dA*lG*dG*dT*dA*lA*eG*eT*eT*e[5mC]),1.314 fold change
6,CO-4044 (antisense eG*eT*eT*eG*eG*eG*eA*eT*eA*eG*e[5mC]*e[5mC]*eT*eG*eA*eA*eT*eT*e[5mC]*e[5mC]),0.974 fold change
7,CO-4062 (antisense eG*eA*e[5mC]*e[5mC]*eA*eA*eT*eG*eT*eT*eG*e[5mC]*e[5mC]*eT*eA*eT*eT*eA*eT*eT),1.108 fold change
8,CO-4054 (antisense e[5mC]*eG*eT*eT*e[5mC]*eA*eT*e[5mC]*eT*eT*eT*eG*e[5mC]*eT*eT*eA*eT*eA*e[5mC]*eA),1.269 fold change
9,CO-6977 (antisense eG*eG*eT*eA*eA*eG*eT*eT*e[5mC]*e[5mC]*eT*eG*eA*eA*eG*eT*eG*eG*eA*eG),1.15 fold change
10,CO-6984 (antisense eT*eG*eA*eG*eG*eT*e[5mC]*eT*eA*eA*eT*eT*eT*eA*eG*eA*eA*eG*eA*e[5mC]),1.127 fold change
11,"CO-7030 (antisense AGAATCGCTGTGGCAGTTAA; fully 2'-MOE, mixed PS/PO, 5-methylcytosine; listed as RNA; modified_base 1..20: mod_base = OTHER; note = Phosphorothioate linkage; note = 2'-O-(2-methoxyethyl) ribonucleotide; modified_base 6: mod_base = OTHER; note = 5-methyl cytidine; modified_base 8: mod_base)",1.372 fold change
12,CO-7006 (antisense eG*eT*eG*eG*eA*eT*eG*eT*eA*eG*eA*eT*eG*eA*eA*eT*eG*eG*e[5mC]*eA*eA*eG),1.279 fold change
13,CO-4057 (antisense e[5mC]*eA*eG*e[5mC]*eA*e[5mC]*eA*eA*eA*eT*eA*eT*eA*eT*eT*eG*eG*eA*eG*eG),1.245 fold change
14,CO-4011 (antisense eT*e[5mC]*e[5mC]*eA*eA*e[5mC]*eA*e[5mC]*e[5mC]*eG*eT*eA*e[5mC]*eT*e[5mC]*eA*eT*eT*eT*e[5mC]),1.184 fold change
15,CO-7037 (antisense e[5mC]*eT*eG*eT*eA*e[5mC]*eA*eT*eT*eT*eA*eG*eA*eG*eA*e[5mC]*eA*eA*eA*eG),1.136 fold change
16,CO-4519 (antisense eA*eG*eA*e[5mC]*eT*eG*eG*e[5mC]*eA*eT*eGeT*eG*eG*e[5mC]*eT*eT*e[5mC]*eA*e[5mC]),1.061 fold change
17,CO-4509 (antisense eT*eG*eG*eA*eT*eG*eT*eA*eG*eA*eT*eG*eA*eA*eT*eG*eG*e[5mC]*eA*eA),1.233 fold change
18,CO-7184: derivative ASO with additional chemical modifications based on parent ASO CO-4529 (antisense eG*eT*eG*eG*lA*eG*e[5mC]*eA*eA*lA*e[5mC]*eT*eA*eG*lG*e[5mC]*eA*e[5mC]*eT*eG),1.582 fold change
